From patent publication US9260425B2 (Genetech, Inc., priority 2011, dated 2016)

Tests used:
BaF3 parental cells = test: In vitro cell proliferation potency assay, BaF3 parental line with IL-3 (Cell Titer Glo); format: cell-based, murine; settings: Mus musculus, 2 ng/mL mIL-3, incubated overnight, read-out: Prolif. BaF3 IL3 (IC50)
Experimental: (§1) In Vitro Cell Proliferation Potency Assays
(§2) BaF3 parental line was obtained from the DSMZ repository. BaF3 lines transfected with PIM-1 or PIM-2 were generated. Mouse IL-3 was purchased from R&D Systems. G418 was purchased from Clontech. Media for BaF3 parental line contained RPMI, 10% FBS, 2 mM L-Glutamine, 2 ng/mL mIL-3. Media for BaF3 PIM1 & 2 lines contained RPMI, 10% FBS, 2 mM L-Glutamine, […]. Media for MM1.S (multiple myeloma cells) line contained RPMI, 10% FBS, 2 mM L-Glutamine.
(§3) BaF3, a murine interleukin-3 dependent pro-B cell line, parental cells, BaF3 PIM1 cells, BaF3 PIM-2 cells, and MM1.S (multiple myeloma) cells were seeded at 2 k/well, 5 k/well, 5 k/well, and 10 k/well respectively, in a 384-well plate, at 45 μL/well. Test compound was added at 5 μL/well. BaF3 cells (parental and transfected) were incubated overnight, while MM1.S cells were incubated for 72 hours at 37° C., 5% CO2. Cell Titer Glo Reagent (Promega) was added at 50 μL/well, the plates were incubated for 30 minutes, and their luminescence read on an HT Analyst. IC50/EC50 values for the test compound were calculated.

BaF3 PIM1 cells = test: In vitro cell proliferation potency assay, BaF3 line transfected with PIM-1 (Cell Titer Glo); format: cell-based, murine; settings: Mus musculus, incubated overnight, read-out: Prolif. BaF3 PIM-1 (IC50)
Experimental: as §1
as §2, with “BaF3 lines transfected with PIM-1 or PIM-2 were generated.” left out
as §3

Pim-1 = Pim-1 (Homo sapiens (Human), UniProt P11309); test: Pim kinase binding activity assay (Example 901), PIM-1 enzyme, Caliper microfluidic peptide phosphorylation; format: biochemical; settings: 20 pM PIM-1, 10 μM ATP, 1 μM FAM-peptide, 90 minutes at room temperature
How it was run: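 PIM-1 at 20 pM phosphorylated 1 μM FAM-labelled Pim peptide with 10 μM ATP in HEPES pH 7.2, MgCl2, Tween 20 and DTT for 90 min at room temperature. EDTA stopped the reaction, and product and substrate were resolved by microfluidic electrophoresis (ex 488/em 530 nm). Ki was derived from substrate conversion.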

[1] = tested on: MM1.S (multiple myeloma) cells; test: In vitro cell proliferation potency assay, MM1.S cells (Cell Titer Glo); format: cell-based; settings: Homo sapiens, 72 hours, read-out: Prolif. MM1S ATP (EC50)
Experimental: as §1, §2, §3

Sequence of Pim-1 (P11309 whole entry): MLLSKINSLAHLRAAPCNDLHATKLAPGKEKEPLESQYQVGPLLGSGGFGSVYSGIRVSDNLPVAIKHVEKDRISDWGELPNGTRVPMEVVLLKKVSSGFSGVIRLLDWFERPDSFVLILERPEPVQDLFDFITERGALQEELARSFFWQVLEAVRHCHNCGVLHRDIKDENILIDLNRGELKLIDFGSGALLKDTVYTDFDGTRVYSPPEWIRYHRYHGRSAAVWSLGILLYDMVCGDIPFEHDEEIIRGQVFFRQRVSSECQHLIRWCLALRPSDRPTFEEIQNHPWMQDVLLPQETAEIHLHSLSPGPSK

| Structure (SMILES) | IC50 (BaF3 PIM1 cells) | Ki (Pim-1) | EC50 [1] | IC50 (BaF3 parental cells) |
| --- | --- | --- | --- | --- |
| N[C@H]1CCN(c2cncc(-c3cc4c(-c5ccccc5F)n[nH]c4cn3)c2)C1 [Example 190, (S)-1-(5-(3-(2-fluorophenyl)-1H-pyrazolo[3,4-c]pyridin-5-yl)pyridin-3-yl)pyrrolidin-3-amine] | 159 nM | 0.27 nM | 67.2 nM | 1800 nM |
| NC1CCN(c2nc(-c3n[nH]c4cnc(-c5cccnc5)cc34)ccc2Cl)CC1 [Example 241, 1-(3-chloro-6-(5-(pyridin-3-yl)-1H-pyrazolo[3,4-c]pyridin-3-yl)pyridin-2-yl)piperidin-4-amine] | 584 nM | 0.096 nM | 57.3 nM | 1300 nM |
| C=Cc1ccc(-c2n[nH]c3cnc(-c4cccnc4)cc23)nc1N1CCC[C@H](N)C1 [Example 307, (S)-1-(6-(5-(pyridin-3-yl)-1H-pyrazolo[3,4-c]pyridin-3-yl)-3-vinylpyridin-2-yl)piperidin-3-amine] | 67.1 nM | 0.014 nM | 141 nM | 1400 nM |
| Cc1ccc(-c2n[nH]c3cnc(-c4cccnc4)cc23)nc1N1CC[C@@H](N)C1 [Example 316, (R)-1-(3-methyl-6-(5-(pyridin-3-yl)-1H-pyrazolo[3,4-c]pyridin-3-yl)pyridin-2-yl)pyrrolidin-3-amine] | 62.8 nM | 0.0549 nM | 114 nM | 1000 nM |
| OCCN1CCCN(c2cccc(-c3n[nH]c4cnc(-c5cccnc5)cc34)n2)CC1 [Example 357, 2-(4-(6-(5-(pyridin-3-yl)-1H-pyrazolo[3,4-c]pyridin-3-yl)pyridin-2-yl)-1,4-diazepan-1-yl)ethanol] | 709 nM | 0.26 nM | 244 nM | 4900 nM |
| Cn1cc(-c2cc3c(-c4ccc(Br)c(N5CCC[C@H](N)C5)n4)n[nH]c3cn2)cn1 [Example 376, (S)-1-(3-bromo-6-(5-(1-methyl-1H-pyrazol-4-yl)-1H-pyrazolo[3,4-c]pyridin-3-yl)pyridin-2-yl)piperidin-3-amine] | 30.9 nM | 0.009 nM | 356 nM | 4100 nM |

Continued, in another order:

| IC50 (BaF3 PIM1 cells) | Ki (Pim-1) | EC50 [1] | Structure (SMILES) | IC50 (BaF3 parental cells) |
| --- | --- | --- | --- | --- |
| 336 nM | 0.048 nM | 201 nM | N[C@H]1CCCN(c2cccc(-c3n[nH]c4cnc(-c5cccnc5)cc34)n2)CC1 [Example 248, (S)-1-(6-(5-(pyridin-3-yl)-1H-pyrazolo[3,4-c]pyridin-3-yl)pyridin-2-yl)azepan-4-amine] | 1600 nM |
| 518 nM | 0.02 nM | 191 nM | N[C@@H]1CCCN(c2cccc(-c3n[nH]c4cnc(-c5cccnc5)cc34)n2)CC1 [Example 249, (R)-1-(6-(5-(pyridin-3-yl)-1H-pyrazolo[3,4-c]pyridin-3-yl)pyridin-2-yl)azepan-4-amine] | 2500 nM |
| 76.6 nM | 0.073 nM | 638 nM | CCn1cc(-c2cc3c(-c4cccc(N5CCNCC5)n4)n[nH]c3cn2)cn1 [Example 356, 5-(1-ethyl-1H-pyrazol-4-yl)-3-(6-(piperazin-1-yl)pyridin-2-yl)-1H-pyrazolo[3,4-c]pyridine] | 5400 nM |
| 63.7 nM | 0.08 nM | 230 nM | CCn1cc(-c2cc3c(-c4cccc(N5CCC[C@H](NC)C5)n4)n[nH]c3cn2)cn1 [Example 377, (S)-1-(6-(5-(1-ethyl-1H-pyrazol-4-yl)-1H-pyrazolo[3,4-c]pyridin-3-yl)pyridin-2-yl)-N-methylpiperidin-3-amine] | 5300 nM |
| 129 nM | 0.057 nM | 228 nM | CC(C)Cn1cc(-c2cc3c(-c4cccc(N5CCNCC5)n4)n[nH]c3cn2)cn1 [Example 381, 5-(1-isobutyl-1H-pyrazol-4-yl)-3-(6-(piperazin-1-yl)pyridin-2-yl)-1H-pyrazolo[3,4-c]pyridine] | 2200 nM |
| 110 nM | 0.078 nM | 170 nM | Cn1cc(-c2cc3c(-c4cccc(N5CCCC(C)(O)C5)n4)n[nH]c3cn2)cn1 (centres unmarked) [Example 383, 3-methyl-1-(6-(5-(1-methyl-1H-pyrazol-4-yl)-1H-pyrazolo[3,4-c]pyridin-3-yl)pyridin-2-yl)piperidin-3-ol] | 1300 nM |
| 58.5 nM | 0.132 nM | 130 nM | c1cc(-c2n[nH]c3cnc(-c4cnn(C5CCC5)c4)cc23)nc(N2CCNCC2)c1 [Example 390, 5-(1-cyclobutyl-1H-pyrazol-4-yl)-3-(6-(piperazin-1-yl)pyridin-2-yl)-1H-pyrazolo[3,4-c]pyridine] | 5700 nM |
| 40.2 nM | 0.01 nM | 97.9 nM | Cc1cncc(-c2cc3c(-c4cccc(N5CCNCC5)n4)n[nH]c3cn2)n1 [Example 505, 5-(6-methylpyrazin-2-yl)-3-(6-(piperazin-1-yl)pyridin-2-yl)-1H-pyrazolo[3,4-c]pyridine] | 2300 nM |
